Results published in BindingDB's records for PubMed 35367706 (University of Newcastle, 2022).

Legend:
[1] = Binding affinity to influenza A/Beijing/262/95 H1N1 neuraminidase expressed in baculovirus expression system using sialyl-lactose as substrate
[2] = Inhibition of Influenza A virus (A/GuangdongSB/01/2009(H1N1)) neuraminidase using 4-MUNANA as substrate preincubated for 1 hr followed by substrate addition and measured after 1 hr by fluorescence assay
[3] = Inhibition of Influenza A virus (A/Guangdong/03/2009(H1N1)) neuraminidase using 4-MUNANA as substrate preincubated for 1 hr followed by substrate addition and measured after 1 hr by fluorescence assay
[4] = Inhibition of Influenza A virus (A/Guangdong/05/2009(H1N1)) neuraminidase using 4-MUNANA as substrate preincubated for 1 hr followed by substrate addition and measured after 1 hr by fluorescence assay

| Structure (SMILES) | Ki [1] [µM] | IC50 [2] [µM] | IC50 [3] [µM] | IC50 [4] [µM] |
| --- | --- | --- | --- | --- |
| Nc1c(S(=O)(=O)O)cc(Nc2ccc(Nc3nc(Cl)nc(Nc4ccccc4S(=O)(=O)O)n3)c(S(=O)(=O)O)c2)c2c1C(=O)c1ccccc1C2=O | 2.9 |  |  |  |
| C/C=C/Oc1cc(C=O)ccc1O |  | 27 | 28 | 25 |
| O=S(=O)(O)c1ccccc1Nc1nc(Cl)nc(Nc2ccccc2S(=O)(=O)O)n1 | 0.28 |  |  |  |
| O=S(=O)(O)c1cccc(Nc2nc(Cl)nc(Nc3cccc(S(=O)(=O)O)c3)n2)c1 | 0.13 |  |  |  |
